Experimental data reported in the NIST ThermoML archive (doi:10.1016/j.jct.2016.06.016).
± gives the expanded uncertainty stated by the source.

What was measured:
[1] = xn = mol fraction of the nth substance listed; conditions: 100 kPa, Liquid, x2 = 0; for viscosity: Concentric cylinders viscometry; for mass density: Vibrating tube method
[2] = refractive index (Na D-line) (dimensionless); xn = mol fraction of the nth substance listed; conditions: 100 kPa, Liquid, Standard Abbe refractometry, x2 = 0
[3] = refractive index (Na D-line) (dimensionless); conditions: 100 kPa, Liquid, Standard Abbe refractometry
[4] = 100 kPa, Liquid; for viscosity: Concentric cylinders viscometry; for mass density: Vibrating tube method

CCCCO [butan-1-ol] + CCOC(=O)CCC(=O)OCC
Conditions	mass density, [1] [kg/m3]	refractive index, [2]	viscosity, [1] [mPa·s]
288.15 K	813.46 ± 0.81	1.4012 ± 0.0014	3.365 ± 0.028
293.15 K	809.66 ± 0.81	1.3992 ± 0.0014	2.913 ± 0.025
298.15 K	805.84 ± 0.81	1.3972 ± 0.0014	2.563 ± 0.022
303.15 K	801.99 ± 0.81	1.3951 ± 0.0014	2.257 ± 0.019
308.15 K	798.12 ± 0.81	1.393 ± 0.0014	1.994 ± 0.017
313.15 K	794.22 ± 0.81	1.391 ± 0.0014	1.779 ± 0.016
318.15 K	790.28 ± 0.81	1.3889 ± 0.0014	1.576 ± 0.014
323.15 K	786.29 ± 0.81	1.3867 ± 0.0014	1.422 ± 0.013

CCOC(=O)CCC(=O)OCC [diethyl butanedioate]
Conditions	mass density, [4] [kg/m3]	refractive index, [3]	viscosity, [4] [mPa·s]
288.15 K	1044.83 ± 0.84	1.4217 ± 0.0014	3.195 ± 0.03
293.15 K	1039.63 ± 0.83	1.4195 ± 0.0014	2.807 ± 0.027
298.15 K	1034.44 ± 0.83	1.4173 ± 0.0014	2.491 ± 0.024
303.15 K	1029.25 ± 0.83	1.4151 ± 0.0014	2.229 ± 0.022
308.15 K	1024.08 ± 0.83	1.4129 ± 0.0014	2.008 ± 0.02
313.15 K	1018.9 ± 0.83	1.4108 ± 0.0014	1.821 ± 0.018
318.15 K	1013.72 ± 0.83	1.4088 ± 0.0014	1.66 ± 0.017
323.15 K	1008.55 ± 0.83	1.4067 ± 0.0014	1.523 ± 0.015

CCCCCCO [hexan-1-ol] + CCOC(=O)CCC(=O)OCC
Conditions	mass density, [1] [kg/m3]	refractive index, [2]	viscosity, [1] [mPa·s]
288.15 K	822.26 ± 0.83	1.4196 ± 0.0014	6.308 ± 0.058
293.15 K	818.7 ± 0.83	1.4176 ± 0.0014	5.332 ± 0.05
298.15 K	815.12 ± 0.83	1.4156 ± 0.0014	4.538 ± 0.042
303.15 K	811.52 ± 0.83	1.4136 ± 0.0014	3.896 ± 0.037
308.15 K	807.89 ± 0.83	1.4117 ± 0.0014	3.361 ± 0.032
313.15 K	804.25 ± 0.83	1.4097 ± 0.0014	2.917 ± 0.028
318.15 K	800.56 ± 0.83	1.4078 ± 0.0014	2.546 ± 0.024
323.15 K	796.85 ± 0.83	1.4058 ± 0.0014	2.241 ± 0.022

CCCO [propan-1-ol] + CCOC(=O)CCC(=O)OCC
Conditions	mass density, [1] [kg/m3]	refractive index, [2]	viscosity, [1] [mPa·s]
288.15 K	807.75 ± 0.81	1.3875 ± 0.0014	2.514 ± 0.022
293.15 K	803.77 ± 0.81	1.3854 ± 0.0014	2.208 ± 0.019
298.15 K	799.76 ± 0.81	1.3834 ± 0.0014	1.95 ± 0.017
303.15 K	795.72 ± 0.81	1.3814 ± 0.0014	1.727 ± 0.015
308.15 K	791.64 ± 0.81	1.3792 ± 0.0014	1.542 ± 0.014
313.15 K	787.52 ± 0.81	1.377 ± 0.0014	1.378 ± 0.013
318.15 K	783.36 ± 0.81	1.3748 ± 0.0014	1.236 ± 0.012
323.15 K	779.14 ± 0.81	1.3726 ± 0.0014	1.124 ± 0.011
